Assay results reported in article PMC10788915, “Fragment Merging, Growing, and Linking Identify New Trypanothione Reductase Inhibitors for Leishmaniasis” (Journal of Medicinal Chemistry, 2024).
Read-outs that look alike come from different tables or passages of the source.

Assays:
[1] = Cytotoxicity assay on primary murine macrophages (MTT); assay type: cell-based, Balb/c mice; settings: Balb/c, mouse, primary peritoneal exudate macrophages, read-out: primary murine macrophage CC50 ± SE (95% CI)
Description: (§1) To assess the cytotoxicity of compounds on mammalian macrophages, we tested all the compounds against both human leukemia monocyte cell line (THP-1 cells, ATCC) differentiated into macrophages by treatment with 40 ng/mL of phorbol myristate acetate (PMA; Sigma) for 48 h and peritoneal exudate macrophages harvested from Balb/c mice. […] Cell viability was evaluated using the MTT assay, and the concentration of the compound that produced a 50% reduction of cell viability in treated culture cells with respect to untreated ones (CC50) was determined by GraphPad Prism 5.0 (GraphPad Software Inc., San Diego, USA). […] The selectivity index for each compound was calculated as the ratio of cytotoxicity (CC50) in macrophages cells to activity (IC50) against Leishmania axenic amastigotes. The experiments were performed in triplicate, and two independent experiments were conducted.

[2] = test system: L. infantum axenic amastigotes; test: In vitro inhibition of axenic amastigote growth (MTT); assay type: cell-based, Leishmania infantum; settings: 72 h, read-out: axenic amastigote EC50 ± SE (95% CI)
Description: Axenic amastigote growth inhibition was evaluated using L. infantum strain (MHOM/TN/80/IPT1, WHO international reference strain). Axenic amastigote cultures were obtained as described previously with modifications.[45] Promastigotes were grown in Schneider’s Drosophila medium (SIGMA) containing 10% heat-inactivated fetal calf serum (FCS)(GIBCO-BRL) and 2% gentamicin (50 mg/L)(Sigma) in 25 cm^2 flasks at 22 °C. After 4–5 days, the parasites were adjusted to 1 × 10^6 parasites/mL in axenic medium MAA/20 consisting of modified medium 199 (Gibco BRL) with Hanks’ salts supplemented with 0.5% tryptic soy broth (Sigma), 0.01 mM bathocuproine disulfonic acid, 3 mM L-cysteine, 15 mM D-glucose, 5 mM L-glutamine, 4 mM NaHCO3, 0.023 mM bovine hemin, and 25 mM HEPES to a final pH of 6.5 and supplemented with 20% pretested FCS, and axenic amastigotes were obtained by shifting the incubation conditions: 198 μL of suspension was seeded in triplicate in 96-well flat bottom microplates and incubated at 37 °C, 5% CO2 for 48 h in order to allow the axenization. The amastigote cells were visualized under the light microscope to confirm transformation. Then, 2 μL of the selected compounds with varying concentrations were added: 100, 50, 25, 12.5, 6.25, 3.12, 1.56, 0.8, 0.4, 0.2, 0.1, 0.05 μM. […] Each experiment was conducted in triplicate for each drug concentration, and three independent experiments were performed. To estimate the 50% inhibitory concentration (IC50), the (3-[4.5-dimethylthiazol-2-yl]-2.5-diphenyltetrazolium bromide) (MTT) micromethod was used throughout the experiments with modification. After 72 h of incubation, 30 μL of MTT was added to each well, and the plates were further incubated for 3 h. The absorbance at 550 nm was measured with a 96-well scanner. Antileishmanial activity was expressed as the percentage of inhibition in the number of live parasites compared to that in the control (nontreated parasites). % inhibition was calculated as follows: % growth inhibition = [(absorb cell with drug × 100)/absorb cell control] – 100. Results were analyzed by GraphPad Prism 5.0, dose–response curves were obtained and IC50 deduced (GraphPad Software Inc., San Diego, USA).

[3] = Cytotoxicity assay on human THP-1-derived macrophages (MTT); assay type: cell-based; settings: human, THP-1 cells differentiated into macrophages with PMA, 72 h, MTT; read-out: human THP-1-derived macrophage CC50 ± SE (95% CI)
Description: as §1

[4] = test system: human THP-1-derived macrophages; test: as above; assay type: cell-based
Description: as §1

[5] = molecular target: T1, Leishmania infantum TR (LiTR) (Leishmania infantum, UniProt A4HSF7); test: LiTR inhibition kinetics, Ki from Dixon plots; assay type: biochemical; settings: for mode of inhibition of LiTR: Dixon plots; for Ki: graphically determined from Dixon plots
T1 construct: The TbTR and LiTR genes were subcloned in a pET28b vector; 6-His (cleaved yes); made in house; host or cells: E. coli BL21(DE3), pET28b
T1 sequence (A4HSF7 1-491): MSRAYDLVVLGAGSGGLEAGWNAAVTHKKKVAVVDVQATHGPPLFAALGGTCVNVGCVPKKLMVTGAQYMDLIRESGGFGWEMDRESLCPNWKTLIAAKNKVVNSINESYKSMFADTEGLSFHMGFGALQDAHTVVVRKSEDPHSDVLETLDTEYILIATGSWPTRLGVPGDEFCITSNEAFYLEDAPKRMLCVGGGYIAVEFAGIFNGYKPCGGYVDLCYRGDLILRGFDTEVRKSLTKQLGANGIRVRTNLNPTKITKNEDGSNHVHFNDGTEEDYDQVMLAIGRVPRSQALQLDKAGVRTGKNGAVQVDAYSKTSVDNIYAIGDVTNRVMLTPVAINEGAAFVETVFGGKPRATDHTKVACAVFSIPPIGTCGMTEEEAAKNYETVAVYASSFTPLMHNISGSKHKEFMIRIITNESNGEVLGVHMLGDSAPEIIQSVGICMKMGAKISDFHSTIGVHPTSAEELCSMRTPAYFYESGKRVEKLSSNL
Description: Enzymatic inhibition assays were performed in 50 mM HEPES pH 7.4, 40 mM NaCl at 25 °C using a JASCO V650 spectrophotometer equipped with a JASCO EHC 716 Peltier element to ensure controlled temperature. The first experiment was carried out using 50 nM LiTR, 10 or 100 μM compound to be tested, 150 μM trypanothione (trypanothione disulfide purchased from Bachem), and 100 μM NADPH (tetrasodium salt, purchased from Calbiochem). The best inhibitor candidates were then tested at concentrations ranging from 1 nM to 250 μM to determine the IC50. Assays were initiated upon addition of 100 μM NADPH to 50 nM LiTR or hGR (human glutathione reductase purchased from Sigma-Aldrich) in the presence of different concentration of compounds and 150 μM trypanothione. For both experiments, the oxidation of NADPH was followed as a decrease in absorbance at 340 nm. For each concentration of compound, the initial velocity of the NADPH oxidation was used to determine the percentage of LiTR activity with respect to that in the absence of any compound. The IC50 was determined upon fitting the residual activity of TR as a dose–response logistic equation defined as ymin + (ymax – ymin)/(1 + (x/IC50)^slope). […] The Ki was determined graphically upon linear fitting of data points for each trypanothione concentration. Data analysis was performed with QtiPlot 0.9.8.9 svn 2288, and graphs were made with Matplotlib. […]
assays were carried out at 25°C on a JASCO V650 spectrophotometer equipped with a JASCO EHC716 Peltier unit. Compound concentrations range from 1 to 6 µM. Briefly, 50 nM LiTR were mixed in 50 mM HEPES pH 7.4, 40 mM NaCl with each compound and various concentrations of trypanothione (reported on the figure). After 3-minute incubation at 25°C, the measurement was initiated upon addition of 100 µM NADPH. The oxidation of NADPH was followed as a decrease in absorbance at 340 nm. The inverse of the initial velocity of LiTR enzymatic reaction was reported as a function of the compound concentration. The intersection of the linear fitting of data at different trypanothione concentration provides a graphical determination of the inhibition constant K i. Each data point is the mean of three measurements.
(1 picture or pasted object on this page, not shown here)

Compound | CC50 at 72 h [1] [µM] | EC50 ([2]; Leishmania infantum) [µM] | CC50 at 72 h [3] [µM] | SI = human THP-1-derived macrophage CC50/axenic amastigote EC50 [4] | mode of inhibition of LiTR [5] | Ki [5] [µM] | EC50 [2] [µM]
O=C(NCCc1ccc(F)cc1)c1ccc(CNC(=O)N2CC[N+](CCCc3ccccc3)(Cc3ccc(Cl)c(Cl)c3)CC2)o1.[I-] [Compound 14, 1-(3,4-Dichlorobenzyl)-4-(((5-((4-fluorophenethyl)carbamoyl)furan-2-yl)methyl)carbamoyl)-1-(3-phenylpropyl)piperazin-1-ium Iodide] | 12.7 ± 0.9 | 8.98 ± 0.4 | 20.5 ± 3.6 | 2.3 | linear competitive inhibition | 0.8 ± 0.2 | –
C[N+]1(CCCc2ccccc2)CCN(C(=O)N(Cc2ccc(C(=O)NCCc3ccc(F)cc3)o2)c2ccc(F)cc2)CC1.[I-] [Compound 9, 4-(((5-((4-Fluorophenethyl)carbamoyl)furan-2-yl)methyl)(4-fluorophenyl)carbamoyl)-1-methyl-1-(3-phenylpropyl)piperazin-1-ium Iodide] | 29.9 ± 4.2 | 10.4 | 38.4 ± 11 | 3.7 | linear competitive inhibition | 5.5 ± 0.2 | 10.4 ± 1.1
O=C(NCCc1ccc(F)cc1)c1ccc(CN(C(=O)N2CC[N+](CCCc3ccccc3)(Cc3ccc(Cl)c(Cl)c3)CC2)c2ccc(F)cc2)o1.[I-] [Compound 10, 1-(3,4-Dichlorobenzyl)-4-(((5-((4-fluorophenethyl)carbamoyl)furan-2-yl)methyl)(4-fluorophenyl)carbamoyl)-1-(3-phenylpropyl)piperazin-1-ium Iodide] | 12.5 ± 0.8 | 11 ± 1.9 | 16 ± 2.4 | 1.4 | linear competitive inhibition | 0.2 | –
